What was measured:
PDGF-R = PDGF-R Assay (cellular ELISA, U1242 cells); assay type: cell-based; design: concentration or dose not given beside the values
Procedure, shortened: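 U1242 cells seeded in 0.5% serum, serum-starved, then exposed to compound for 2 hr at 37°C before 5–10 min ligand stimulation and lysis in HNTG. Lysate captured on receptor-antibody-coated plates; phosphotyrosine detected with polyclonal anti-pTyr, goat anti-rabbit IgG and ABTS/H2O2, A410 (ref 630 nm), versus untreated cells.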

EGFR = molecular target: T1, EGFR (Homo sapiens, UniProt P00533); assay: Biochemical EGFR Assay; design: concentration or dose not given beside the values
T1 construct: endogenous in cells; host or cells: A431 cells (lysate, captured with SUMO1 anti-EGFR antibody)
T1 sequence (P00533 25-1210): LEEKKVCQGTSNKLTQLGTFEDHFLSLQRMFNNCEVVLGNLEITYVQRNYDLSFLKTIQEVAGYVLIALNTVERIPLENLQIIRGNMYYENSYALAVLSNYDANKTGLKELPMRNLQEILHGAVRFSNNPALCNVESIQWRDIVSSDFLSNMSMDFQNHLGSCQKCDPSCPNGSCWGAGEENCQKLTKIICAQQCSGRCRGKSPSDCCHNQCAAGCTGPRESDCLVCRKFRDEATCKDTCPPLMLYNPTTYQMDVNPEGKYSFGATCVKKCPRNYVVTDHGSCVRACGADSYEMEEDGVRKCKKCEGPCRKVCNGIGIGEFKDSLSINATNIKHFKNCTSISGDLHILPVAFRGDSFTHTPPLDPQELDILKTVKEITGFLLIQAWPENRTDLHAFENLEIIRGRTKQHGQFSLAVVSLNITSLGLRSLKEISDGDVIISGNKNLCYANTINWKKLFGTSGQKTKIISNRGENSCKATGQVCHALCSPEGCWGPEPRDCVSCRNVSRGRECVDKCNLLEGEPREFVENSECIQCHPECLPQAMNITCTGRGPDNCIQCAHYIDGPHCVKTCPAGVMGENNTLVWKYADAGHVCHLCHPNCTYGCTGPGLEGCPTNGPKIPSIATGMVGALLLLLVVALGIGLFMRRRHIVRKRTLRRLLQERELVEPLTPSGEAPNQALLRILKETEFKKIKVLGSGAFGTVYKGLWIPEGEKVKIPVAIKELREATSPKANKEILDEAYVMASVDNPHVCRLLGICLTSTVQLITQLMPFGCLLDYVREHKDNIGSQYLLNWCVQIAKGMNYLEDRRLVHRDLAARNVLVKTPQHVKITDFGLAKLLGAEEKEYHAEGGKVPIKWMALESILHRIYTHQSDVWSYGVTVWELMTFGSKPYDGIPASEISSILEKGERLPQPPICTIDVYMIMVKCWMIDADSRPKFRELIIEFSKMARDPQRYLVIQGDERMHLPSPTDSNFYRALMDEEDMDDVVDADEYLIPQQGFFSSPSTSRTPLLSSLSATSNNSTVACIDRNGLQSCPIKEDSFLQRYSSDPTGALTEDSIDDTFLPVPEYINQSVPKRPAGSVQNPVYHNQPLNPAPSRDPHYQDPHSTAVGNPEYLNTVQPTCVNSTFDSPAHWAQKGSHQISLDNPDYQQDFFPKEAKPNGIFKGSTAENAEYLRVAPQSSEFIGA
Procedure, shortened: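 EGFR from A431 lysate was captured on anti-EGFR-coated wells and preincubated 30 min with compound (diluted 1:10 in TBS) at room temperature. After ATP/MnCl2 phosphorylation for 5 min, the reaction was stopped with EDTA. Phosphotyrosine was detected by ELISA (anti-phosphotyrosine, peroxidase conjugate, ABTS) at 410 nm.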

Question: Which results are given for `Cc1c(Br)cc(Br)c2c1C(=Cc1sccc1Br)C(=O)N2` [10725/H02]?
Answer: PDGF Kinase % Inhibition (P.119) (PDGF-R): −19.9%; Biochem EGFR % Inhibition (P.167) (EGFR): −23.5%

Question: What does the source list for `CCc1ccc(C=C2C(=O)Nc3c(Br)cc(Br)c(C)c32)o1` [10724/H10]?
Answer: PDGF Kinase % Inhibition (P.119) (PDGF-R): −2.7%; Biochem EGFR % Inhibition (P.167) (EGFR): −25.5%

Question: Which results are given for `Cc1c(Br)cc(Br)c2c1C(=Cc1ccccc1[N+](=O)[O-])C(=O)N2` [10726/H02]?
Answer: PDGF Kinase % Inhibition (P.119) (PDGF-R): −8.3%; Biochem EGFR % Inhibition (P.167) (EGFR): −11.2%

Question: Which “PDGF Kinase % Inhibition (P.119)” value (PDGF-R) does the source give for `O=C1Nc2ccc(CCCl)cc2C1=Cc1ccccc1C(F)(F)F` [10736/G03] here?
Answer: 1.4%

Question: And the “Biochem EGFR % Inhibition (P.167)” value (EGFR)?
Answer: 23.0%

Question: How did the “PDGF Kinase % Inhibition (P.119)” value (PDGF-R) turn out when `O=C1Nc2ccc(CCCl)cc2C1=Cc1ccc(Cl)cc1` [10736/G02] was run?
Answer: −5.2%

Question: And the “Biochem EGFR % Inhibition (P.167)” value (EGFR)?
Answer: −4.5%

Question: Which results are given for `Cc1c(Br)cc(Br)c2c1C(=Cc1cc(Cl)c(O)c(C(C)(C)C)c1)C(=O)N2` [10722/H08]?
Answer: PDGF Kinase % Inhibition (P.119) (PDGF-R): −15.2%; Biochem EGFR % Inhibition (P.167) (EGFR): −5.7%

Question: `Cc1c(Br)cc(Br)c2c1C(=Cc1c[nH]cn1)C(=O)N2` [10725/H11] was tested. Which “PDGF Kinase % Inhibition (P.119)” value (PDGF-R) did it give?
Answer: 16.5%

Question: And the “Biochem EGFR % Inhibition (P.167)” value (EGFR)?
Answer: 0.5%

Question: With `Cc1c(Br)cc(Br)c2c1C(=Cc1ccc([N+](=O)[O-])s1)C(=O)N2` [10722/H04] as the molecule, how does the “PDGF Kinase % Inhibition (P.119)” value (PDGF-R) read?
Answer: −26.1%

Question: And the “Biochem EGFR % Inhibition (P.167)” value (EGFR)?
Answer: 8.6%

Question: What does the source list for `O=C1Nc2ccc(S(=O)(=O)N3CCOCC3)cc2C1=Cc1ccccc1Cl` [10736/F11]?
Answer: PDGF Kinase % Inhibition (P.119) (PDGF-R): 4.4%; Biochem EGFR % Inhibition (P.167) (EGFR): −23.4%

Question: For `Cc1c(Br)cc(Br)c2c1C(=Cc1c(Br)cnn1-c1ccc(Cl)cc1)C(=O)N2` [10725/H10], which “PDGF Kinase % Inhibition (P.119)” value (PDGF-R) is on record?
Answer: 12.2%

Question: And the “Biochem EGFR % Inhibition (P.167)” value (EGFR)?
Answer: 9.1%

Question: For `COc1ccc(C=C2C(=O)Nc3c(Br)cc(Br)c(C)c32)c(O)c1` [10723/H09], which “PDGF Kinase % Inhibition (P.119)” value (PDGF-R) is on record?
Answer: 15.9%

Question: And the “Biochem EGFR % Inhibition (P.167)” value (EGFR)?
Answer: −2.6%

Question: With `Cc1c(Br)cc(Br)c2c1C(=Cc1cccn1-c1ccc(Cl)cc1)C(=O)N2` [10724/H09] as the molecule, how does the “PDGF Kinase % Inhibition (P.119)” value (PDGF-R) read?
Answer: −13.1%

Question: What about the “Biochem EGFR % Inhibition (P.167)” value (EGFR) of the same molecule?
Answer: −33.5%

Question: What does the source list for `CC(=O)Oc1ccc(C=C2C(=O)Nc3c(Br)cc(Br)c(C)c32)cc1OC(C)=O` [10723/H05]?
Answer: PDGF Kinase % Inhibition (P.119) (PDGF-R): −12.6%; Biochem EGFR % Inhibition (P.167) (EGFR): −17.3%

Question: What does the source list for `Cc1cc(C=C2C(=O)Nc3c(Br)cc(Br)c(C)c32)cc(C(C)(C)C)c1O` [10726/H04]?
Answer: PDGF Kinase % Inhibition (P.119) (PDGF-R): 13.2%; Biochem EGFR % Inhibition (P.167) (EGFR): 75.5%

Question: What does the source list for `Cc1c(Br)cc(Br)c2c1C(=Cc1ccccc1Br)C(=O)N2` [10723/H07]?
Answer: PDGF Kinase % Inhibition (P.119) (PDGF-R): −20.9%; Biochem EGFR % Inhibition (P.167) (EGFR): −11.3%

Question: Which results are given for `Cc1c(Br)cc(Br)c2c1C(=Cc1ccc(C(=O)O)cc1)C(=O)N2` [10722/H05]?
Answer: PDGF Kinase % Inhibition (P.119) (PDGF-R): 0.9%; Biochem EGFR % Inhibition (P.167) (EGFR): 1.1%

Question: What does the source list for `Cc1c(Br)cc(Br)c2c1C(=Cc1ccc([N+](=O)[O-])c(O)c1)C(=O)N2` [10724/H04]?
Answer: PDGF Kinase % Inhibition (P.119) (PDGF-R): −13.1%; Biochem EGFR % Inhibition (P.167) (EGFR): 14.0%

From patent US20020026053A1, “Novel 3-(substituted) -2- indolinones compounds and use thereof as inhibitors of protein kinase activity” (priority 1997, published 2002)
